Experimental data as given in PMC7956625, “Optimization and Anti-Cancer Properties of Fluoromethylketones as Covalent Inhibitors for Ubiquitin C-Terminal Hydrolase L1” (Molecules, 2021).
Changes are numbered by the printed parent chain. Where a SMILES comes first, the peptide text is derived from it. The star is where a group is joined. Cbz = O=C(OCc1ccccc1)*; CH2F = FC*

Columns and labels:
[1] = target: T1, UCHL3 (Homo sapiens, UniProt P15374); assay: KMS cell activity-based probe (HA-Ub-VME) target engagement assay; conditions: 0–250 µM, 4 h, UCHL3 immunoblot
T1 sequence (P15374 1-230): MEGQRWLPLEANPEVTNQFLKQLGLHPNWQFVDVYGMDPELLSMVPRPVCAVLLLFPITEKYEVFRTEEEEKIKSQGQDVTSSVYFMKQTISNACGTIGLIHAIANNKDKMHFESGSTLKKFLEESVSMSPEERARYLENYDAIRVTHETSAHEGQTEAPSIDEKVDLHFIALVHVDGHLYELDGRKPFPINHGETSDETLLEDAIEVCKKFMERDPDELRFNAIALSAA
Experimental: (§1) To confirm on-target engagement in KMS11 cells, a Ub activity-based probe (ABP) gel-shift assay was employed. Using the hemagglutinin-tagged Ub-vinylmethylester (HA-Ub-VME) ABP to examine the activity of 1 in KMS11 cells, an immunoblot was performed. Cells were treated in dose-response with 1 (0–250 µM), washed with PBS, then lysed and treated with HA-Ub-VME. The HA-Ub-VME labels any remaining DUBs that have not been inhibited by 1.
(§2) Twelve hours prior to the addition of compounds to the cells, 1.2 million KMS11 or KMS12 cells mL^−1 per well were seeded in a 12 well plate. Cells were incubated with inhibitor for 4 h before washing the cells three time with PBS to remove excess compound. Cells were harvested, pelleted, and lysed in 60 µL of lysis buffer (0.5%NP-40 in 50 mM Tris pH 7.4). HA-Ub-VME was then added to a final concentration of 1 µM and incubated for 1 h at room temperature. An equal volume of 2X Laemmli sample buffer was added, and the samples were heated to 95 °C before separating by gel electrophoresis and analyzed by immunoblot.

[2] = target: T2, UCHL5 (Homo sapiens, UniProt Q9Y5K5); assay: KMS cell activity-based probe (HA-Ub-VME) assay, HA blot higher exposure; conditions: 250 µM, KMS11 cells
T2 sequence (Q9Y5K5 1-245 limits assumed): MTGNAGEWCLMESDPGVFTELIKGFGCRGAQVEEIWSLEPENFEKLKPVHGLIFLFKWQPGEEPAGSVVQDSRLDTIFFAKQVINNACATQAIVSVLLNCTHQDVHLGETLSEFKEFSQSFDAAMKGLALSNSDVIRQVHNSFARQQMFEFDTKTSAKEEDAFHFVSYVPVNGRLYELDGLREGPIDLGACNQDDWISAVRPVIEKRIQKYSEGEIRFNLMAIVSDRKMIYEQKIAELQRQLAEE
Experimental: as §1, §2

[3] = target: T1, UCHL3; set-up: His (N); made in house; method as in PMID 22617491; conditions: concentrations up to 400 µM; cited from earlier work
[4] = target: T3, UCHL1 C90A (Homo sapiens, UniProt P09936, C90A); assay: Mass spectrometry analysis of 34 adducts on UCHL1; format: binding
T3 construct: His (N); made in house
T3 sequence (P09936 1-223 C90A): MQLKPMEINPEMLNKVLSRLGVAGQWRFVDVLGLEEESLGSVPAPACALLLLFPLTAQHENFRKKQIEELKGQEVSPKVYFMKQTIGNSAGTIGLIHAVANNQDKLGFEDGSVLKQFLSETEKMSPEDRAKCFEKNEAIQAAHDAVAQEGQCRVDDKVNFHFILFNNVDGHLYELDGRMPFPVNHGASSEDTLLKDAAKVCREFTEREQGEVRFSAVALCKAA
Experimental: (§3) A common shortcoming to covalent inhibitors is that the reactive electrophilic groups may partake in non-specific labeling of off-target cysteines. To investigate if alternative cysteines are affected on UCHL1 we used analog 34 to confirm that the fluoromethylketone derivatives only conjugate Cys90. […] Additionally, samples were analyzed by mass spectrometry to increase sensitivity for detection of any non-Cys90 adducts. […]
(§4) Solutions containing 10 µM recombinant UCHL1^WT or UCHL1^C90A (from pET15b) (49 µL) was incubated with either 10 µM or 20 µM inhibitor for 3 h at room temperature in PBS starting block buffer (Thermo Scientific # 37538). To quench reaction, chilled acetone was added to the sample to achieve an overall 80% acetone solution. After overnight storage at −20 °C, suspension was centrifuged at 14,000× g at 4 °C for 15 min. Supernatant was discarded, and pellet was dried by vacuum centrifugation for 1 h. Pellet was reconstituted in 50/50 water/acetonitrile with 0.1% formic acid. 25 pmol per sample was analyzed by LC/MS (Agilent 1260 Infinity II with a ZORBAX Rapid Resolution High Definition 300Å Stable Bond C3, 2.1 × 100 mm, 1.8 µm column) attached to an Agilent 6129 quadrupole mass spectrometer in positive ion mode.
(§5) The column was held at 45 °C. Mobile solution A was 0.1% formic acid in water, and mobile phase B was 0.1% formic acid in acetonitrile. The gradient used was hold at 5% B for 5 min, increase linearly to […] for 10, and then hold at 95% B for 5 min. The mass data were collected at a range of 500–1000 m/z.
(§6) Raw data were processed using MestReNova. For all samples, the deconvoluted mass was calculated with a charged state range from 27 to 36, m/z range of 670–900 Da, and deconvoluted mass range from 25,000–26,000 Da. […] For C90A mutant, this abundance threshold was lowered to 5% to detect the presence of any reacted protein. 34 adduct is expected to be +486.00 Da after displacement of fluorine.

[5] = target: T4, WT-UCHL1 (Homo sapiens, UniProt P09936); assay: Mass spectrometry analysis of 34 adducts on UCHL1; format: binding; conditions: WT-UCHL1 + 34 (1:1)
T4 construct: His (N); made in house
T4 sequence (P09936 1-223): T3 sequence (P09936 1-223 C90A) with A90C
Experimental: as §3, §4, §5, §6

COC(=O)CC[C@H](NC(=O)[C@H](C)NC(=O)[C@@H](NC(=O)OCc1ccccc1)C(C)C)C(=O)CF [Cpd 1, benzyloxycarbonyl-Val-Ala-Glu(γ-methoxy)-fluoromethylketone] (Cbz-Val-Ala-Glu(OMe)-CH2F)
HA-Ub-UCHL3 complex formation in KMS11 cells [1]: does not inhibit UCHL3 in cells | inhibition of DUB corresponding to the molecular weight UCHL5 [2]: may also be inhibited | activity toward UCHL3 [3]: not possess any activity

C#Cc1ccc(COC(=O)N[C@H](C(=O)N[C@@H](C)C(=O)N[C@@H](CCC(=O)OC)C(=O)CF)C(C)C)cc1 [Cpd 34]
Adduct(s) Observed (Da) ([4]; UCHL1 C90A + 34 (1:1)): none | Adduct(s) Observed (Da) ([4]; UCHL1 C90A + 34 (1:2)): no adducts observed and none | Adduct(s) Observed (Da) [5]: +486.00 Da
